Data on three substances can be found in article PMC9916762, “Impact of Hydrophobic Chains in Five-Coordinate Glucoconjugate Pt(II) Anticancer Agents” (International Journal of Molecular Sciences, 2023).

Series [1] concerns murine fibroblast BALB/c-3T3 transformed with the SV40 virus (SVT2). Briefly: MTT cell viability assay, SVT2. The format is cell-based. To be noted: for IC50: 48 h incubation, MTT; for SI (selectivity index): ratio IC50 BALB-c/3T3 / IC50 SVT2. An excerpt: (§1) The immortalized human keratinocytes (HaCaT) were from Innoprot.
Series [2] relates to immortalized murine fibroblasts (BALB/c-3T3). To be noted: read-out: IC50 BALB-c/3T3; 48 h incubation, MTT. The procedure: To evaluate their biological activity, the effects of the four complexes on cell viability were evaluated in eukaryotic cell models. For this purpose, experiments were performed on two cancer cell lines, i.e., human epidermoid carcinoma cells (A431) and murine fibroblast BALB/c-3T3 transformed with the SV40 virus (SVT2), and on two non-cancer cell lines, i.e., immortalized human keratinocytes (HaCaT) and immortalized murine fibroblasts (BALB/c-3T3). Cells were incubated with increasing concentrations of 1,Me-Me, 1,Oct-Me, 1,Me-Oct, and 1,Oct-Oct (from 0.1 to 50 μM). After 48 h of incubation, cytotoxicity was determined by MTT assay and cell survival was expressed as the percentage of viable cells in the presence of each complex compared with that of the untreated cells (Figure S19).
The immortalized human keratinocytes (HaCaT) were from Innoprot. Human The A431 epidermoid carcinoma, murine BALB/c-3T3, and SVT2 fibroblasts were from ATCC. Cells were cultured in Dulbecco’s modified Eagle’s medium (DMEM) (Sigma-Aldrich, St. Louis, MO, USA), supplemented with 10% foetal bovine serum (HyClone), 2 mM L-glutamine, and antibiotics, all from Sigma-Aldrich, under a 5% CO2-humidified atmosphere at 37 °C. To test the effects of the complexes on cell viability, cells were seeded at a density of 2.5 × 10^3 cells per well in 96-well plates. After 24 h, cells were incubated with increasing concentrations (from 0.1 to 50 μM) of the four complexes. After 48 h, cell viability was assessed by the MTT assay, as previously reported in [43]. Cell viability was expressed as the percentage of viable cells in the presence of the Pt complexes compared to the controls, represented by untreated cells and cells supplemented with identical volumes of DMSO. Each sample was tested in three independent analyses, each carried out in triplicate.

Series [3] concerns A431 cells. Briefly: Western blot of pro-caspases 9 and 3, A431. The format is cell-based, human. To be noted: A431, 2.3 μM, 48 h. The procedure:
(§2) In particular, SVT2 and A431 were incubated for 48 h with 1-Me,Me and 1-Oct,Me, using the IC50 value concentrations. At the end of incubation, uptake and cell death mechanisms were evaluated. […] Finally, apoptosis was investigated by Western blot analyses using specific antibodies against pro-caspases 9 and 3.
The SVT2 were seeded on six-well plates at a density of 2.5 × 10^5 cells/well, whereas A431 was seeded at a density of 3 × 10^5 cells/well. After 24 h, cells were treated with 9.8 μM of 1-Me,Me or 2.3 μM 1-Oct,Me. After 48 h of incubation, Western blot analyses were performed by using pro-caspase 9 (Cell Signaling Technology, Danvers, MA, USA) and pro-caspase 3 (Abcam, Cambridge, MA, USA) antibodies, as reported by Del Giudice et al. Protein intensity levels were normalized using β-actin (Sigma-Aldrich, St. Louis, MO, USA). The chemiluminescence detection system was purchased from Bio-Rad (Hercules, CA, USA).
Background: In western blotting, separated proteins are transferred to a membrane and probed.

A short description of series [4]: Octanol/water partition coefficient, shake-flask method. It is filed as physicochemical. To be noted: n-octanol/water, UV-vis. The method, then: The partition coefficients in octanol/water (log Po/w) were measured using the shake-flask method, by calculating the equilibrium concentrations through UV spectra (Table 1).
Partition coefficients for the platinum complexes were determined in triplicate in an n-octanol/water system, with different ratios (1:1, 1:2, 2:1). Each complex was dissolved in n-octanol at the concentrations 16.7, 12.5, or 10 μM and subsequently, an appropriate volume of water was added. The mixtures were shaken mechanically for 1 h to ensure the distribution between the two solvent phases. The samples were then centrifuged (13,000 rpm, 10 min). Afterwards, the platinum concentration was determined in the octanol phases by UV–vis spectrophotometry, after collecting a calibration line for each complex. Results are expressed as the logarithm of the partition coefficient of octanol/water (log Po/w), which is the logarithm of the concentration of platinum in the n-octanol divided by its concentration in the aqueous layer.

Series [5] relates to immortalized human keratinocytes (HaCaT). Nature of the series: MTT cell viability assay, HaCaT. The format is cell-based. As to conditions: 48 h incubation.
Text: as §1
A general note: Tetrazolium assays rely on reduction of a dye to a coloured formazan, in cell work by metabolically active cells.

For series [6], the system named is human epidermoid carcinoma cells (A431). Briefly: MTT cell viability assay, A431. The format is cell-based. As to conditions: for IC50: 48 h incubation, MTT; for SI (selectivity index): ratio IC50 HaCaT / IC50 A431.
Text: as §1

The test system of series [7] is A431 cells. Nature of the series: Cellular Pt uptake by ICP-MS, A431. The format is cell-based, human. As to conditions: A431, 2.3 μM (IC50), 48 h, mean ± S.E. The method, then:
as §2
To study the uptake of the complexes, SVT2 and A431 were incubated for 48 h in the presence of 1-Me,Me and 1-Oct,Me, respectively, at their IC50 concentrations. At the end of incubation, Pt determination was performed by inductively coupled plasma mass spectrometry (ICP-MS, Aurora M90; Bruker, Ettlingen/Leipzig, Germany) in the “Normal Sensitivity” mode. Calibration curves for the quantification of Pt ranged from 0.1 to 100 μg/L and were constructed daily by the analysis of the standard solutions prepared immediately before analysis. All standards used for analysis were prepared in HNO3 solution (2%, v/v). The internal standards were ^89Y and ^115In in both the calibration curve and sample analyses. The linearity was acceptable with an R^2 value greater than 0.9996. The treatment of the cells involved a wet digestion: after centrifugation, cell samples were wet digested with 1 mL of ultrapure HNO3 (67–69%, v/v). The mixture was gently boiled over a water bath (90 °C) for 3 h until a clear solution was obtained. […]

For “Platinum(1+), (2,9-dimethyl-1,10-phenanthroline- N1,N10)(η2-ethene)octyl[1,3-dihydro-1,3-dimethyl-4-[1-[2,3,4,6-tetrakis-O-(acetyl)-β-D-glucopyranosyl]-1H-1,2,3-triazol-4-yl]-2H-imidazol-2-ylidene], 1,1,1-trifluoromethanesulfonate [1-Oct,Me]”, the IC50 in series [1] came out at 8.6 ± 0.6 µM; in series [2], 7.1 ± 0.1 µM; in series [5], 6.4 ± 1 µM; in series [6], 2.3 ± 0.1 µM. Besides, the entries for the “SI (selectivity index)” value in series [1] and in series [6] were 0.83 and 2.78, respectively. For the same substance, the “pro-caspases 9 and 3 levels” value in the series with A431 cells [3] is “significant decrease in pro-caspases 9 and 3 levels”. Besides, in series [4], the “Log Po/w” value amounted to 1.14. In the series on A431 cells [7], this substance showed a Pt uptake of 14.3 ± 1.3 Pt ng/10^6 cells.
Consider “Platinum(1+), (2,9-dimethyl-1,10-phenanthroline- N1,N10)(η2-ethene)methyl[1,3-dihydro-1-methyl-3-octyl-4-[1-[2,3,4,6-tetrakis-O-(acetyl)-β-D-glucopyranosyl]-1H-1,2,3-triazol-4-yl]-2H-imidazol-2-ylidene], 1,1,1-trifluoromethanesulfonate [1-Me,Oct]”, for which the IC50 in series [1] turned out to be 7.6 ± 1.1 µM; in series [2], 8.3 ± 0.4 µM; in series [5], 8 ± 0.1 µM; in series [6], 7.3 ± 0.4 µM. The entries for the “SI (selectivity index)” value in series [1] and in series [6] were 1.09 and 1.1, respectively. Also, the “Log Po/w” value in series [4] was 0.74.
Consider “Platinum(1+), (2,9-dimethyl-1,10-phenanthroline- N1,N10)(η2-ethene)octyl[1,3-dihydro-1-methyl-3-octyl-4-[1-[2,3,4,6-tetrakis-O-(acetyl)-β-D-glucopyranosyl]-1H-1,2,3-triazol-4-yl]-2H-imidazol-2-ylidene], 1,1,1-trifluoromethanesulfonate [1-Oct,Oct]”, for which the IC50 in series [1] was found to be 4.5 ± 1.3 µM; in series [2], 7.3 ± 0.7 µM; in series [5] it was 6.4 ± 0.8 µM; in series [6], 5 ± 0.6 µM. Besides, the “SI (selectivity index)” value is 1.62 in series [1] and 1.28 in series [6]. For the same substance, the “Log Po/w” value in series [4] was 0.80.
